The text below walks through data of patent US20060252807A1, “Novel ortho-terphenyl inhibitors of p38 kinase and methods of treating inflammatory disorders” (Kalypsys, Inc., priority 2005, published 2006).

For this assay, the target named is T1, active p38 alpha enzyme (Upstate Biotechnology) (Homo sapiens, UniProt Q16539).
T1 construct: purchased Upstate Biotechnology
As to the kind of experiment: p38α biochemical assay (ATP turnover, luminescent detection, Cambrex PKlight). To be noted: p38α biochemical assay, Table 1 Biological Activity. As for the experimental part: The p38α biochemical assay employed is based on measurement of total ATP turnover following enzyme incubation with substrate in the presence of ATP with the use of a luminescent detection reagent (Cambrex PKlight). The assays were performed in 1536-well white opaque plates.
The final volume was 7.5005 μL as prepared prepared from the addition of 5 ul of kinase reaction (p38 alpah+MapkapK2+ATP) with 0.0005 μL compound dissolved in DMSO, and 2.5 ul of the detection reagent. Assay buffer contains the following reagents to give final concentration in the assay: 200 mM Tris, 100 mM MgCl2, 1.5 mM EGTA, 4 mM CaCl2, 20 mM MOPS, 1 mM EDTA, 1% glycerol, 0.1% B-Mecaptoethanol, and 1 mg/ml BSA. Test compounds are pinned using proprietary pintool technology (Kalypsys, Inc) and delivered as […] amounts into the 5 ul mixture of active p38 alpha enzyme (Upstate Biotechnology) and MapkapK2 (Upstate Biotechnology) whole protein as a substrate for phosphorylation in the presence of 1.4 uM final concentration ATP. Reactions are incubated at 30C for 2 hours and detection reagent is added in 2.5 ul/well amounts. Assay is read using a Perkin Elmer Viewlux.

T1 sequence (Q16539 whole entry): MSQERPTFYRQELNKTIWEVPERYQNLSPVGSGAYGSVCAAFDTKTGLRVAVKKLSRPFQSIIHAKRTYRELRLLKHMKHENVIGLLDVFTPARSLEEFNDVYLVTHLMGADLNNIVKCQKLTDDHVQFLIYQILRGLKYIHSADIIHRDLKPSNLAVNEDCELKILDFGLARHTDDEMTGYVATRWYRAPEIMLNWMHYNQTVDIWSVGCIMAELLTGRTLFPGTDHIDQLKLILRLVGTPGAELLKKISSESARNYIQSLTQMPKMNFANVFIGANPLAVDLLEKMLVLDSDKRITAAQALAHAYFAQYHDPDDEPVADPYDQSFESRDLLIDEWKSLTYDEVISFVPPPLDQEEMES

For the compound `CC(C)NC(=O)c1csc(-c2c(-c3ccc(F)cc3)noc2CN(C)C)n1` [Example 29, 2-|5-Dimethylaminomethyl-3-(4-fluoro-phenyl)-isoxazol-4-yl|-thiazole-4-carboxylic acid isopropylamide], the IC50 was no more than 1 µM.

Regarding `CC(C)NC(=O)c1csc(-c2c(-c3ccc(F)cc3)noc2CN2CCCCC2)n1` [Example 30, 2-|3-(4-Fluoro-phenyl)-5-piperidin-1-ylmethyl-isoxazol-4-yl|-thiazole-4-carboxylic acid isopropylamide], the IC50 was greater than 1 µM.

Regarding `CCOC(=O)N1CCC(NCc2onc(-c3ccc(F)cc3)c2-c2nc(C(=O)NC(C)C)cs2)CC1` [Example 31], the IC50 is greater than 1 µM.

With `CC(C)NC(=O)c1csc(-c2c(-c3ccc(F)cc3)noc2CNCCO)n1` [Example 32, 2-{3-(4-Fluoro-phenyl)-5-|(2-hydroxy-ethylamino)-methyl|-isoxazol-4-yl}-thiazole-4-carboxylic acid isopropylamide], the half-inhibitory concentration (IC50) is greater than 1 µM.

`COCCNCc1onc(-c2ccc(F)cc2)c1-c1nc(C(=O)NC(C)C)cs1` [Example 33, 2-{3-(4-Fluoro-phenyl)-5-|(2-methoxy-ethylamino)-methyl|-isoxazol-4-yl}-thiazole-4-carboxylic acid isopropylamide] registered an IC50 greater than 1 µM.

As for `Cc1onc(-c2ccc(F)cc2)c1-c1csc(C(=O)NC(C)C)n1` [Example 34], the IC50 is no more than 1 µM.

The compound `CC(C)NC(=O)c1csc(-c2c(-c3ccc(F)cc3)noc2C2CCN(C(=O)CO)CC2)n1` [Example 36, 2-{3-(4-Fluoro-phenyl)-5-|1-(2-hydroxy-acetyl)-piperidin-4-yl|-isoxazol-4-yl}-thiazole-4-carboxylic acid isopropylamide] came in with an IC50 of no more than 1 µM.

Turning to `CC(C)NC(=O)c1coc(-c2c(-c3ccc(F)cc3)noc2C2CCNCC2)n1` [Example 37, 2-|3-(4-Fluoro-phenyl)-5-piperidin-4-yl-isoxazol-4-yl|-oxazole-4-carboxylic acid isopropylamide], the IC50 was no more than 1 µM.

`Cc1nc(-c2ccc(F)cc2)c(-c2nc(C(N)=O)cs2)o1` [Example 39, 2-|4-(4-Fluoro-phenyl)-2-methyl-oxazol-5-yl|-thiazole-4-carboxylic acid amide] yielded an IC50 greater than 1 µM.

Take `CC(C)NC(=O)c1csc(-c2oc(CN(C)C)nc2-c2ccc(F)cc2)n1` [Example 42, 2-|2-Dimethylaminomethyl-4-(4-fluoro-phenyl)-oxazol-5-yl|-thiazole-4-carboxylic acid isopropylamide]: the IC50 was no more than 1 µM.

Consider `CC(C)NC(=O)c1csc(-c2oc(CNC(=O)OC(C)(C)C)nc2-c2ccc(F)cc2)n1` [Example 43, |4-(4-Fluoro-phenyl)-5-(4-isopropylcarbamoyl-thiazol-2-yl)-oxazol-2-ylmethyl|-carbamic acid tert-butyl ester], for which the IC50 was greater than 1 µM.

Turning to `CNC(=O)c1csc(-c2sc(C)nc2-c2ccc(F)cc2)n1` [Example 47, 4′-(4-Fluoro-phenyl)-2′-methyl-|2,5′|bithiazolyl-4-carboxylic acid methylamide], the IC50 is no more than 1 µM.

As for `CCNC(=O)c1csc(-c2sc(C)nc2-c2ccc(F)cc2)n1` [Example 48, 4′-(4-Fluoro-phenyl)-2′-methyl-|2,5′|bithiazolyl-4-carboxylic acid ethylamide], the 50% inhibitory concentration (IC50) was no more than 1 µM.

In turn, `Cc1nc(-c2ccc(F)cc2)c(-c2nc(C(=O)NCCO)cs2)s1` [Example 49, 4′-(4-Fluoro-phenyl)-2′-methyl-|2,5′|bithiazolyl-4-carboxylic acid (2-hydroxy-ethyl)-amide] showed an IC50 of no more than 1 µM.

`Cc1nc(-c2ccc(F)cc2)c(-c2nc(C(=O)NC3CCC3)cs2)s1` [Example 50, 4′-(4-Fluoro-phenyl)-2′-methyl-|2,5′|bithiazolyl-4-carboxylic acid cyclobutylamide] returned an IC50 of no more than 1 µM.

`Cc1nc(-c2ccc(F)cc2)c(-c2nc(C(=O)NCC3CC3)cs2)s1` [Example 51, 4′-(4-Fluoro-phenyl)-2′-methyl-|2,5′|bithiazolyl-4-carboxylic acid cyclopropylmethyl-amide] registered an IC50 of no more than 1 µM.

`Cc1nc(-c2ccc(F)cc2)c(-c2nc(C(=O)NCCCO)cs2)s1` [Example 52, 4′-(4-Fluoro-phenyl)-2′-methyl-|2,5′|bithiazolyl-4-carboxylic acid (3-hydroxy-propyl)-amide] registered an IC50 of no more than 1 µM.

Compound `COCCNC(=O)c1csc(-c2sc(C)nc2-c2ccc(F)cc2)n1` [Example 53, 4′-(4-Fluoro-phenyl)-2′-methyl-|2,5′|bithiazolyl-4-carboxylic acid (2-methoxy-ethyl)-amide] had an IC50 of no more than 1 µM.

In the case of `CCC(CO)NC(=O)c1csc(-c2sc(C)nc2-c2ccc(F)cc2)n1` (stereo not shown) [Example 54, 4′-(4-Fluoro-phenyl)-2′-methyl-|2,5′|bithiazolyl-4-carboxylic acid (1-hydroxymethyl-propyl)-amide], the IC50 was no more than 1 µM.

In the case of `Cc1nc(-c2ccc(F)cc2)c(-c2nc(C(=O)NCc3cccnc3)cs2)s1` [Example 55, 4′-(4-Fluoro-phenyl)-2′-methyl-|2,5′|bithiazolyl-4-carboxylic acid (pyridin-3-ylmethyl)-amide], the IC50 was no more than 1 µM.

On to `Cc1nc(-c2ccc(F)cc2)c(-c2nc(C(=O)NCc3ccccn3)cs2)s1` [Example 56, 4′-(4-Fluoro-phenyl)-2′-methyl-|2,5′|bithiazolyl-4-carboxylic acid (pyridin-2-ylmethyl)-amide], for which the IC50 was no more than 1 µM.

Regarding `Cc1nc(-c2ccc(F)cc2)c(-c2nc(C(=O)NCc3ccncc3)cs2)s1` [Example 57, 4′-(4-Fluoro-phenyl)-2′-methyl-|2,5′|bithiazolyl-4-carboxylic acid (pyridin-4-ylmethyl)-amide], the 50% inhibitory concentration (IC50) was no more than 1 µM.

With `Cc1nc(-c2ccc(F)cc2)c(-c2nc(C(=O)NCCCN3CCOCC3)cs2)s1` [Example 58, 4′-(4-Fluoro-phenyl)-2′-methyl-|2,5′|bithiazolyl-4-carboxylic acid (3-morpholin-4-yl-propyl)-amide], the IC50 was greater than 1 µM.

On to `Cc1nc(-c2ccc(F)cc2)c(-c2nc(C(=O)NCc3ccc4c(c3)OCO4)cs2)s1` [Example 59, 4′-(4-Fluoro-phenyl)-2′-methyl-|2,5′|bithiazolyl-4-carboxylic acid (benzo|1,3|dioxol-5-ylmethyl)-amide], for which the IC50 is no more than 1 µM.

`COc1ccc(CNC(=O)c2csc(-c3sc(C)nc3-c3ccc(F)cc3)n2)cc1OC` [Example 60, 4′-(4-Fluoro-phenyl)-2′-methyl-|2,5′|bithiazolyl-4-carboxylic acid 3,4-dimethoxy-benzylamide] registered an IC50 greater than 1 µM.

`CC(C)NC(=O)c1csc(-c2c(-c3ccc(F)cc3)n[nH]c2C2CCNCC2)n1` [Example 61, 2-|3-(4-Fluoro-phenyl)-5-piperidin-4-yl-1H-pyrazol-4-yl|-thiazole-4-carboxylic acid isopropylamide] displayed an IC50 of no more than 1 µM.

As for `CCNC(=O)c1csc(-c2c(-c3ccc(F)cc3)n[nH]c2C2CCNCC2)n1` [Example 63, 2-|3-(4-Fluoro-phenyl)-5-piperidin-4-yl-1H-pyrazol-4-yl|-thiazole-4-carboxylic acid ethylamide], the IC50 was no more than 1 µM.

For `C#CCNC(=O)c1csc(-c2c(-c3ccc(F)cc3)n[nH]c2C2CCNCC2)n1` [Example 65, 2-|3-(4-Fluoro-phenyl)-5-piperidin-4-yl-1H-pyrazol-4-yl|-thiazole-4-carboxylic acid prop-2-ynylamide], the IC50 was no more than 1 µM.

As to `O=C(NCc1cccnc1)c1csc(-c2c(-c3ccc(F)cc3)n[nH]c2C2CCNCC2)n1` [Example 67, 2-|3-(4-Fluoro-phenyl)-5-piperidin-4-yl-1H-pyrazol-4-yl|-thiazole-4-carboxylic acid (pyridin-3-ylmethyl)-amide], the IC50 is no more than 1 µM.

With `O=C(NCC1CC1)c1csc(-c2c(-c3ccc(F)cc3)n[nH]c2C2CCNCC2)n1` [Example 69, 2-|3-(4-Fluoro-phenyl)-5-piperidin-4-yl-1H-pyrazol-4-yl|-thiazole-4-carboxylic acid cyclopropylmethyl-amide], the IC50 was no more than 1 µM.

Regarding `O=C(O)c1csc(-c2c(-c3ccc(F)cc3)n[nH]c2C2CCNCC2)n1` [Example 70, 2-(3-(4-fluorophenyl)-5-(piperidin-4-yl)-1H-pyrazol-4-yl)thiazole-4-carboxylic acid], the IC50 is greater than 1 µM.

`CCNC(=O)c1csc(-c2c(-c3ccc(F)cc3)n[nH]c2C)n1` [Example 72, 2-|3-(4-Fluoro-phenyl)-5-methyl-1H-pyrazol-4-yl|-thiazole-4-carboxylic acid ethylamide]: the IC50 is no more than 1 µM.

`Cc1[nH]nc(-c2ccc(F)cc2)c1-c1nc(C(=O)NCc2ccc3c(c2)OCO3)cs1` [Example 74, 2-|3-(4-Fluoro-phenyl)-5-methyl-1H-pyrazol-4-yl|-thiazole-4-carboxylic acid (benzo|1,3|dioxol-5-yl methyl)-amide]: the IC50 was no more than 1 µM.

In turn, `Cc1[nH]nc(-c2ccc(F)cc2)c1-c1nc(C(=O)NCc2ccccn2)cs1` [Example 75, 2-|3-(4-Fluoro-phenyl)-5-methyl-1H-pyrazol-4-yl|-thiazole-4-carboxylic acid (pyridin-2-ylmethyl)-amide] gave an IC50 of no more than 1 µM.

For orientation: IC50 means the concentration that inhibits the measured activity by half. Read a high IC50 as weaker potency in that assay.
